Reference: US20070179060A1, “6-(Poly-substituted aryl)-4-aminopicolinates and their use as herbicides” (priority 2006, published 2007)

How the values were obtained:
Assay in all cases: Postemergence herbicidal activity
Format in all cases: in vivo
[1] = test system: lambsquarter (Chenopodium album); conditions: post-emergent, after 14 days; for % Control CHEAL / pest or weed control at 140 g/ha: 140 g ai/ha
Protocol: (§1) Seeds or nutlets of the desired test plant species were planted in Sun Gro MetroMix® 306 planting mixture, which typically has a pH of 6.0 to 6.8 and an organic matter content of about 30 percent, in plastic pots with a surface area of 64 square centimeters. When required to ensure good germination and healthy plants, a fungicide treatment and/or other chemical or physical treatment was applied. The plants were grown for 7-21 days in a greenhouse with an approximate 15 hour photoperiod which was maintained at about 23-29° C. during the day and 22-28° C. during the night. Nutrients and water were added on a regular basis and supplemental lighting was provided with overhead metal halide 1000-Watt lamps as necessary. The plants were employed for testing when they reached the first or second true leaf stage. […] The concentrated stock solutions obtained were diluted with 20 mL of an aqueous mixture containing acetone, water, isopropyl alcohol, DMSO, Atplus 411F crop oil concentrate, and Triton® X-155 surfactant in a 48.5:39:10:1.5:1.0:0.02 v/v ratio to obtain spray solutions containing the highest application rates. […] Compound requirements are based upon a 12 mL application volume at a rate of 187 L/ha. Formulated compounds were applied to the plant material with an overhead Mandel track sprayer equipped with a […] nozzles calibrated to deliver 187 L/ha over an application area of 0.503 square meters at a spray height of 18 inches (43 cm) above the average plant canopy height. Control plants were sprayed in the same manner with the solvent blank. The treated plants and control plants were placed in a greenhouse as described above and watered by sub-irrigation to prevent wash-off of the test compounds. […] By applying the well-accepted probit analysis as described by J. Berkson in Journal of the American Statistical […], 48, 565 (1953) and by D.

[2] = test system: redroot pigweed (Amaranthus retroflexus); conditions: post-emergent, after 14 days; for % Control AMARE / pest or weed control at 140 g/ha: 140 g ai/ha
Protocol: as §1

[3] = test system: velvetleaf (Abutilon theophrasti); conditions: post-emergent, after 14 days; for % Control ABUTH / pest or weed control at 140 g/ha: 140 g ai/ha
Protocol: as §1

[4] = Chenopodium album, post-emergence, 336 h, read-out: % Control CHEAL
[5] = Amaranthus retroflexus, post-emergence, 336 h, read-out: % Control AMARE
[6] = Abutilon theophrasti, post-emergence, 336 h, read-out: % Control ABUTH

4-Amino-3-chloro-(2-chloro-4-difluoromethyl-6-fluoro-3-methoxy-phenyl)pyridine-2-carboxylic acid, methyl ester [Compound 53]
% Control CHEAL [1]: 95% | % Control AMARE [2]: 80% | % Control ABUTH [3]: 70%

COC(=O)c1nc(-c2ccc(C#N)c(OC)c2F)cc(N)c1Cl [Compound 6, 4-Amino-3-chloro-6-(4-cyano-2-fluoro-3-methoxyphenyl)pyridine-2-carboxylic acid methyl ester]
pest or weed control at 140 g/ha [1, 4]: 95% | pest or weed control at 140 g/ha [2, 5]: 100% | pest or weed control at 140 g/ha [3, 6]: 90%

COC(=O)c1nc(-c2ccc(Cl)c(C(C)(C)F)c2F)cc(N)c1Cl [Compound 25, 4-Amino-3-chloro-6-[4-chloro-2-fluoro-3-(1-fluoro-1-methylethyl)phenyl]-pyridine-2-carboxlic acid, methyl ester]
% Control CHEAL [1]: 100% | % Control AMARE [2]: 100% | % Control ABUTH [3]: 100%

COC(=O)c1nc(-c2ccc(F)c(OC)c2F)cc(NC(C)=O)c1Cl [Compound 28, 4-Acetylamino-3-chloro-(2,4-difluoro-3-methoxyphenyl)pyridine-2-carboxylic acid, methyl ester]
% Control CHEAL [1]: 95% | % Control AMARE [2]: 100% | % Control ABUTH [3]: 100%

COC(=O)c1nc(-c2ccc(F)c(OC)c2Cl)cc(NC(C)=O)c1Cl [Compound 29, 4-Acetylamino-3-chloro-(2-chloro-4-fluoro-3-methoxyphenyl)pyridine-2-carboxylic acid, methyl ester]
% Control CHEAL [1]: 98% | % Control AMARE [2]: 40% | % Control ABUTH [3]: 95%

CCC(F)c1c(Cl)ccc(-c2cc(NC(C)=O)c(Cl)c(C(=O)OC)n2)c1F (stereo not drawn) [Compound 32, 4-Acetylamino-3-chloro-6-[4-chloro-2-fluoro-3-(1-fluoropropyl)-phenyl]pyridine-2-carboxylic acid, methyl ester]
pest or weed control at 140 g/ha [1, 4]: 50% | pest or weed control at 140 g/ha [2, 5]: 80% | pest or weed control at 140 g/ha [3, 6]: 60%

COC(=O)c1nc(-c2ccc(Cl)c(N(C)C)c2Cl)cc(N)c1Cl [Compound 37, 4-Amino-3-chloro-6-[2,4-dichloro-3-(dimethylamino)phenyl]pyridine-2-carboxylic acid, methyl ester]
pest or weed control at 140 g/ha [1, 4]: 100% | pest or weed control at 140 g/ha [2, 5]: 100% | pest or weed control at 140 g/ha [3, 6]: 100%

COC(=O)c1nc(-c2ccc(Cl)c(C(=O)OC)c2F)cc(N)c1Cl [Compound 39, 4-Amino-3-chloro-6-[4-chloro-2-fluoro-3-(methoxycarbonyl)phenyl]pyridine-2-carboxyic acid, methyl ester]
% Control CHEAL [1]: 95% | % Control AMARE [2]: 75% | % Control ABUTH [3]: 90%

COC(=O)c1nc(-c2ccc(Cl)c(C)c2Cl)cc(N)c1Cl [Compound 48, 4-Amino-3-chloro-6-(2,4-dichloro-3-methylphenyl)pyridine-2-carboxylic acid methyl ester]
pest or weed control at 101 g/ha ([1]; Chenopodium album, post-emergence, 336 h, 101 g ai/ha, read-out: % Control CHEAL): 85% | pest or weed control at 101 g/ha ([2]; Amaranthus retroflexus, post-emergence, 336 h, 101 g ai/ha, read-out: % Control AMARE): 80% | pest or weed control at 101 g/ha ([3]; Abutilon theophrasti, post-emergence, 336 h, 101 g ai/ha, read-out: % Control ABUTH): 98%

COC(=O)c1nc(-c2c(F)cc(Cl)c(C(F)F)c2F)cc(N)c1Cl [Compound 54, 4-Amino-3-chloro-6-(4-chloro-3-difluoromethyl-2,6-difluorophenyl)pyridine-2-carboxylic acid, methyl ester]
pest or weed control at 140 g/ha [1, 4]: 100% | pest or weed control at 140 g/ha [2, 5]: 100% | pest or weed control at 140 g/ha [3, 6]: 100%

COC(=O)c1nc(-c2c(F)cc(F)c(OC)c2Cl)cc(N)c1Cl [Compound 55, 4-Amino-3-chloro-(2-chloro-4,6-difluoro-3-methoxyphenyl)pyridine-2-carboxylic acid, methyl ester]
% Control CHEAL [1]: 90% | % Control AMARE [2]: 100% | % Control ABUTH [3]: 100%

COC(=O)c1nc(-c2c(F)cc(Cl)c(OC)c2Cl)cc(N)c1Cl [Compound 57, 4-Amino-3-chloro-6-(2,4-dichloro-6-fluoro-3-methoxyphenyl)pyridine-2-carboxylic acid, methyl ester]
pest or weed control at 140 g/ha [1, 4]: 100% | pest or weed control at 140 g/ha [2, 5]: 100% | pest or weed control at 140 g/ha [3, 6]: 100%
